The target in data set [1] is T1, human calcitonin receptor (Homo sapiens, UniProt P30988).
T1 construct: expressed in transfected cells; host or cells: BHK570
T1 sequence (P30988 25-474): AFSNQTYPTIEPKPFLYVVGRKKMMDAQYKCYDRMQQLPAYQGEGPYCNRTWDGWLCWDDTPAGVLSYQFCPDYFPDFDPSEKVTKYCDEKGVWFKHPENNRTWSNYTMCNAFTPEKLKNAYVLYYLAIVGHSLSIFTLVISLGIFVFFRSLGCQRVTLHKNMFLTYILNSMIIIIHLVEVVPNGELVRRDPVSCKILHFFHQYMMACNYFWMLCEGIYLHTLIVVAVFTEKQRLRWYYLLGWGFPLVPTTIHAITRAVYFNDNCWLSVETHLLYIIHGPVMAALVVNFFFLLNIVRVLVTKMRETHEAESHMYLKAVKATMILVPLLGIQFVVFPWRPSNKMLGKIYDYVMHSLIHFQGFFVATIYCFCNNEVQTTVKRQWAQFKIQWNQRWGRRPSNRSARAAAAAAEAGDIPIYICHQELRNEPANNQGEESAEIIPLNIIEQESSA
The experiment in a line: Assay (II)a functional CRE-luciferase assay, human calcitonin receptor. Conditions: Table 7; human calcitonin (CTa) receptor. The format is cell-based.

Data set [2] in a line: Assay (IV) determination of solubility. The format is physicochemical. A digest of the protocol:
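Solubility was profiled across pH 3.0–8.0 after 18 hours at room temperature: a ~500 nmol/ml aqueous polypeptide solution was diluted 1:1 into 100 mM glycylglycine or bistrispropane buffers. After centrifugation, HPLC gave the dissolved concentration.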

Data set [3] is described as follows: Assay (III) ThT fibrillation assay for physical stability. The following applies: ThT fibrillation assay. The format is physicochemical. A digest of the protocol:
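Freshly prepared formulations, pH-adjusted, with 1 μM ThT; four or eight replicates incubated at 37 °C under 960 rpm orbital shaking. Fluorescence (ex 444/em 485 nm) read every 20 min; […]. Peptide concentration measured by RP-HPLC before and after the run.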

The target in data set [4] is T2, human amylin receptor (amylin 3(a) receptor: human calcitonin receptor + RAMP-3) (Homo sapiens, UniProt O60896+P30988).
T2 construct: expressed in transfected cells; host or cells: BHK570
T2 sequence (P30988 25-474): T1 sequence (P30988 25-474)
T2 sequence (O60896 24-148 partner): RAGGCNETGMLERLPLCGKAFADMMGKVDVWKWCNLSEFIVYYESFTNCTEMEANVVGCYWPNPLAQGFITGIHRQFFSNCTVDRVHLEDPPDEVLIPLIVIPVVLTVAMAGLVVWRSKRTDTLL
The experiment in a line: Assay (II)a functional CRE-luciferase assay, human amylin receptor. The class given is cell-based. The following applies: Table 2; BHK amylin 3(a)-receptor/CRE-luc cells.

The mark [5] stands for this setting: bistrispropane buffer, pH 6, pH 6.0, read-out: Solubility pH 6.0.
The mark [6] stands for this setting: bistrispropane buffer, pH 8, pH 8.0, read-out: Solubility pH 8.0.
[7] abbreviates: glycylglycine buffer, pH 3, pH 3.0, read-out: Solubility pH 3.0.
Where [8] appears, read: glycylglycine buffer, pH 4, pH 4.0, 18 hours at room temperature, Table 2, read-out: Solubility pH 4.0.
The mark [9] stands for this setting: glycylglycine buffer, pH 4, pH 4.0, read-out: Solubility pH 4.0.
Setting [10] is: glycylglycine buffer, pH 5, pH 5.0, read-out: Solubility pH 5.0.

Converted amounts (≈) assume the structure as drawn. Like-named read-outs stand apart in the source and are kept apart here. Starred links: 1 amine or outer side, 2 acyl side, 3 side chain; linkers in the order of their positions; H or OH if unused. Positions of bridges follow the written chain, without caps; N, C: chain ends. Residues, ends and D or L forms follow the SMILES beside them. *: point of attachment. C20 diacid = O=C(O)CCCCCCCCCCCCCCCCCCC(=O)*; γGlu = O=C(O)[C@H](CCC(=O)[*:2])N[*:1]

For orientation: EC50 means the concentration needed to bring the measured effect to its halfway point. In general, solubility refers to how much of the substance goes into solution per volume. As to `CC[C@H](C)[C@H](NC(=O)[C@@H]1CCCN1C(=O)CNC(=O)[C@H](Cc1ccccc1)NC(=O)[C@H](CC(N)=O)NC(=O)[C@H](CC(N)=O)NC(=O)[C@H](CO)NC(=O)[C@H](CO)NC(=O)[C@H](Cc1c[nH]cn1)NC(=O)[C@H](Cc1c[nH]cn1)NC(=O)[C@H](CC(C)C)NC(=O)[C@H](Cc1ccccc1)NC(=O)[C@H](CCC(=O)O)NC(=O)[C@H](C)NC(=O)[C@H](CC(C)C)NC(=O)[C@H](CCCNC(=N)N)NC(=O)[C@H](CCC(N)=O)NC(=O)[C@@H](NC(=O)[C@H](C)NC(=O)[C@@H]1CSSC[C@H](NC(=O)[C@H](Cc2c[nH]cn2)NC(=O)[C@H](Cc2c[nH]cn2)NC(=O)[C@H](Cc2c[nH]cn2)NC(=O)CC[C@H](NC(=O)CCCCCCCCCCCCCCCCCCC(=O)O)C(=O)O)C(=O)N[C@@H](Cc2c[nH]cn2)C(=O)N[C@@H]([C@@H](C)O)C(=O)N[C@@H](C)C(=O)N[C@@H]([C@@H](C)O)C(=O)N1)[C@@H](C)O)C(=O)N[C@@H](CC(C)C)C(=O)N1CCC[C@H]1C(=O)N[C@@H](Cc1c[nH]cn1)C(=O)N[C@H](C(=O)N[C@@H](CC(N)=O)C(=O)N[C@H](C(=O)NCC(=O)N[C@@H](CO)C(=O)N[C@@H](Cc1c[nH]cn1)C(=O)N[C@H](C(=O)N[C@@H](Cc1ccc(O)cc1)C(N)=O)[C@@H](C)O)C(C)C)[C@@H](C)O` [Example 33, N-alpha-[(S)-4-Carboxy-4-(19-carboxynonadecanoylamino)butyryl]-His-His-[His1,His3,Glu14,His17,His29,His35]-pramlintide] ({C20 diacid-γGlu}-HHHCHTATCATQRLAEFLHHSSNNFGPILPHTNVGSHTY-NH2; disulfide 4-9 (inferred); C-terminus assumed), the values for the EC50 in data set [1] and in data set [4] were 0.484 nM and 1.03 nM, respectively. For the same compound, the solubility at 18 h in data set [2] (setting [5]) was greater than 200 µM; in data set [2] (bistrispropane buffer, pH 6.5, pH 6.5, read-out: Solubility pH 6.5), 17 µM (≈ 82 µg/mL); in data set [2] (setting [6]), 16 µM (≈ 77.2 µg/mL); in data set [2] (setting [7]), greater than 200 µM; in data set [2] (setting [8]) it was greater than 200 µM; in data set [2] (setting [9]), greater than 200 µM. Besides, the solubility at 18 h in data set [2] (setting [10]) is greater than 200 µM. For the same compound, in data set [3], the “ThT pH 4.0 lag time (h)” value is given as 10 h.
Turning to `CC[C@H](C)[C@H](NC(=O)[C@@H]1CCCN1C(=O)CNC(=O)[C@H](Cc1ccccc1)NC(=O)[C@H](CC(N)=O)NC(=O)[C@H](CC(N)=O)NC(=O)[C@H](CO)NC(=O)[C@H](CO)NC(=O)[C@H](Cc1c[nH]cn1)NC(=O)[C@H](Cc1c[nH]cn1)NC(=O)[C@H](CC(C)C)NC(=O)[C@H](Cc1ccccc1)NC(=O)[C@H](CCC(=O)O)NC(=O)[C@H](C)NC(=O)[C@H](CC(C)C)NC(=O)[C@H](CCCNC(=N)N)NC(=O)[C@H](CCC(N)=O)NC(=O)[C@@H](NC(=O)[C@H](C)NC(=O)[C@@H]1CSSC[C@H](NC(=O)[C@H](Cc2c[nH]cn2)NC(=O)[C@H](Cc2c[nH]cn2)NC(=O)[C@H](Cc2c[nH]cn2)NC(=O)CC[C@H](NC(=O)CCCCCCCCCCCCCCCCCCC(=O)O)C(=O)O)C(=O)N[C@@H](CC(N)=O)C(=O)N[C@@H]([C@@H](C)O)C(=O)N[C@@H](C)C(=O)N[C@@H]([C@@H](C)O)C(=O)N1)[C@@H](C)O)C(=O)N[C@@H](CC(C)C)C(=O)N1CCC[C@H]1C(=O)N[C@@H](Cc1c[nH]cn1)C(=O)N[C@H](C(=O)N[C@@H](CC(N)=O)C(=O)N[C@H](C(=O)NCC(=O)N[C@@H](CO)C(=O)N[C@@H](Cc1c[nH]cn1)C(=O)N[C@H](C(=O)N[C@@H](Cc1ccc(O)cc1)C(N)=O)[C@@H](C)O)C(C)C)[C@@H](C)O` [Example 34, N-alpha-[(S)-4-Carboxy-4-(19-carboxynonadecanoylamino)butyryl]-His-His-[His1,Glu14,His17,His29,His35]-pramlintide] ({C20 diacid-γGlu}-HHHCNTATCATQRLAEFLHHSSNNFGPILPHTNVGSHTY-NH2; disulfide 4-9 (inferred)), the EC50 was 0.198 nM in data set [1] and 0.272 nM in data set [4]. Also, the solubility at 18 h in data set [2] (18 h, pH 7, read-out: Solubility pH 7.0) was 0 µM; in data set [2] (18 h, pH 7.5, read-out: Solubility pH 7.5), 0 µM; in data set [2] (pH 3, Solubility pH 3.0) it was greater than 200 µM; in data set [2] (pH 4, Solubility pH 4.0) it was greater than 200 µM; in data set [2] (pH 4, Solubility pH 4.0 (μM)) it was greater than 200 µM; in data set [2] (pH 5, Solubility pH 5.0), greater than 200 µM. Further, the solubility at 18 h is greater than 200 µM in data set [2] (pH 6, Solubility pH 6.0); 4 µM (≈ 19.2 µg/mL) in data set [2] (pH 6.5, Solubility pH 6.5); 13 µM (≈ 62.4 µg/mL) in data set [2] (pH 8, Solubility pH 8.0). Besides, in data set [3], the “ThT pH 4.0 lag time (h)” value came out at 13 h.
As to `CC[C@H](C)[C@H](NC(=O)[C@@H]1CCCN1C(=O)CNC(=O)[C@H](Cc1ccccc1)NC(=O)[C@H](CC(N)=O)NC(=O)[C@H](CC(N)=O)NC(=O)[C@H](CO)NC(=O)[C@H](CO)NC(=O)[C@H](Cc1c[nH]cn1)NC(=O)[C@H](Cc1c[nH]cn1)NC(=O)[C@H](CC(C)C)NC(=O)[C@H](Cc1ccccc1)NC(=O)[C@H](CCC(=O)O)NC(=O)[C@H](C)NC(=O)[C@H](CC(C)C)NC(=O)[C@H](CCCNC(=N)N)NC(=O)[C@H](CCC(N)=O)NC(=O)[C@@H](NC(=O)[C@H](C)NC(=O)[C@@H]1CSSC[C@H](NC(=O)[C@H](Cc2c[nH]cn2)NC(=O)[C@H](Cc2c[nH]cn2)NC(=O)[C@H](Cc2c[nH]cn2)NC(=O)CC[C@H](NC(=O)CCCCCCCCCCCCCCCCCCC(=O)O)C(=O)O)C(=O)N[C@@H](Cc2c[nH]cn2)C(=O)N[C@@H]([C@@H](C)O)C(=O)N[C@@H](C)C(=O)N[C@@H]([C@@H](C)O)C(=O)N1)[C@@H](C)O)C(=O)N[C@@H](CC(C)C)C(=O)N1CCC[C@H]1C(=O)N1CCC[C@H]1C(=O)N[C@H](C(=O)N[C@@H](CC(N)=O)C(=O)N[C@H](C(=O)NCC(=O)N[C@@H](CO)C(=O)N[C@@H](CC(N)=O)C(=O)N[C@H](C(=O)N[C@@H](Cc1ccc(O)cc1)C(N)=O)[C@@H](C)O)C(C)C)[C@@H](C)O` [Example 35, N-alpha-[(S)-4-Carboxy-4-(19-carboxynonadecanoylamino)butyryl]-His-His-[His1,His3,Glu14,His17]-pramlintide] ({C20 diacid-γGlu}-HHHCHTATCATQRLAEFLHHSSNNFGPILPPTNVGSNTY-NH2; disulfide 4-9), the 50% effective concentration (EC50) in data set [1] came out at 0.801 nM; in data set [4], 0.286 nM. Besides, the solubility at 18 h in data set [2] (setting [5]) was 17 µM (≈ 81 µg/mL); in data set [2] (bistrispropane buffer, pH 7.5, pH 7.5, read-out: Solubility pH 7.5), 9 µM (≈ 42.9 µg/mL); in data set [2] (setting [6]) it was 66 µM (≈ 314 µg/mL); in data set [2] (setting [7]), greater than 200 µM; in data set [2] (setting [8]) it was greater than 200 µM; in data set [2] (setting [9]) it was greater than 200 µM. Moreover, the solubility at 18 h in data set [2] (setting [10]) was determined as 194 µM (≈ 924 µg/mL). Also, the “ThT pH 4.0 lag time (h)” value in data set [3] is 1.3 h.

(Values after patent US8722849B2, “Polypeptides” (Novo Nordisk A/S, priority 2011, dated 2014).)
